In ChEMBL document CHEMBL1944522, “Design, synthesis, and anaplastic lymphoma kinase (ALK) inhibitory activity for a novel series of 2,4,8,22-tetraazatetracyclo[14.3.1.1³,⁷.1⁹,¹³]docosa-1(20),3(22),4,6,9(21),10,12,16,18-nonaene macrocycles” (J Med Chem, 2012):

Biological target: ALK tyrosine kinase receptor (Homo sapiens, UniProt Q9UM73)
Test: Inhibition of baculovirus expressed GST-tagged human ALK cytoplasmic domain using PLCgamma as substrate after 15 mins by time-resolved fluorescence analysis

Sequence of ALK tyrosine kinase receptor (Q9UM73 whole entry, the tested form may be a part): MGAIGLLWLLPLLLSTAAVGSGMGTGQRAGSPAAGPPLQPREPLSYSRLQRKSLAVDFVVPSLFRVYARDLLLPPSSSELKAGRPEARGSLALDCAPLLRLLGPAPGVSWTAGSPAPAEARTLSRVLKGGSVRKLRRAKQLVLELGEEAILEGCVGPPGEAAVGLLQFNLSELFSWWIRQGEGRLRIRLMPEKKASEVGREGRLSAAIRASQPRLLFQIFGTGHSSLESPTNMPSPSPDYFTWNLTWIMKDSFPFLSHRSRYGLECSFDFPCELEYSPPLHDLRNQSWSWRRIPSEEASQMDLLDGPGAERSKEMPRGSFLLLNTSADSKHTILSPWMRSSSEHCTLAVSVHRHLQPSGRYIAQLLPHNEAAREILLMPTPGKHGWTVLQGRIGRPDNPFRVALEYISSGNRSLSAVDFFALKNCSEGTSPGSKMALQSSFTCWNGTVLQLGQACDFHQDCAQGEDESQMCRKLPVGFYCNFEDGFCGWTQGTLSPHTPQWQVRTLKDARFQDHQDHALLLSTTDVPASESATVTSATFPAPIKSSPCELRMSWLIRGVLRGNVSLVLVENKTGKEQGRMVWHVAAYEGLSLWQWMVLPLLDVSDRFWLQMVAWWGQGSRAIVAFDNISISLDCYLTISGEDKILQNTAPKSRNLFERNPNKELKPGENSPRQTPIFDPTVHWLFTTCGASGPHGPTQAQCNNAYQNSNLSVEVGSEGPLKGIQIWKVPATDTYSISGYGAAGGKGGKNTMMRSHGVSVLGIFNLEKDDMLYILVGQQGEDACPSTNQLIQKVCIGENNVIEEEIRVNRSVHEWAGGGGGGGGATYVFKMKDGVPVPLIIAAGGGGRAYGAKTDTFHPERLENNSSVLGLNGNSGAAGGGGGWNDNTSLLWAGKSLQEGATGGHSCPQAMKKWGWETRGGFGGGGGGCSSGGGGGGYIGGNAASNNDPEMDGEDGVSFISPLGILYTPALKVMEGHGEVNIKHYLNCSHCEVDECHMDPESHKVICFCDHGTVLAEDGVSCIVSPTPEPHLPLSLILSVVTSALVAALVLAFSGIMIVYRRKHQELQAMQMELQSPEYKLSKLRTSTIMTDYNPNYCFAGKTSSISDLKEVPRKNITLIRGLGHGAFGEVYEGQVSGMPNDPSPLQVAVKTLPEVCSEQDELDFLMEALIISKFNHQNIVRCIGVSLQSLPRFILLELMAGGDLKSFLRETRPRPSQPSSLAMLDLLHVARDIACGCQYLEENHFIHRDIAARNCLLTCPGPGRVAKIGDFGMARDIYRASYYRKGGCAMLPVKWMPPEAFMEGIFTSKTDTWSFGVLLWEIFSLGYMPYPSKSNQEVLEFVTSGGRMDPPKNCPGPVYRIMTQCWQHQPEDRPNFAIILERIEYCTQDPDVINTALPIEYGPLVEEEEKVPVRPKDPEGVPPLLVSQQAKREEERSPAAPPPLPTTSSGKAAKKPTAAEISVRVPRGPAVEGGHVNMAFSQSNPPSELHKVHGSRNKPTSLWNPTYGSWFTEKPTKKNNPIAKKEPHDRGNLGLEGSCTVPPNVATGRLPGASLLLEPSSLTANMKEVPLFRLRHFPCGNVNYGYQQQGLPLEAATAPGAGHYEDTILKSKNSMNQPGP

Clc1cnc2nc1Nc1cccc(c1)CCc1cc(ccc1N1CCOCC1)N2
IC50: > 10 µM

Clc1cnc2nc1Nc1cccc(c1)CCc1cccc(c1)N2
IC50: > 10 µM

COc1ccc2cc1Nc1nc(ncc1Cl)Nc1ccc(N3CCOCC3)c(c1)CC2
IC50: > 1 µM
